Usually IC50 stands for the concentration at which inhibition is half-maximal. A low value points to higher potency.

This test has as its target T1, SYK (Homo sapiens, UniProt P43405).
T1 construct: 2.5 nM SYK, 400 nM Biotin-Aha-Aha-KEDPDYEWPSAKK
Kind of test: SYK flash plate assay (enzyme assay). The format is biochemical. A digest of the protocol: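 Radiometric Flashplate format: biotinylated peptide substrate (400 nM) and 33P-labelled ATP (10 μM) react with 2.5 nM enzyme for 1 hour at 30 °C in Hepes buffer, pH 7.5. After EDTA quench and washing, counts are taken; staurosporine defines non-specific signal, and IC50 values are derived.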
`CC1(C)C(=O)Nc2cc(Nc3nc4c(O[C@@H]5CN[C@@H](c6ccccc6C(F)(F)F)C5)nccn4n3)ccc21` [E82, 3,3-dimethyl-6-{8-[(3S,5R)-5-(2-trifluoroinethyl-phenyl)-pyrrolidin-3-yloxy]-[1,2,4]triazolo[1,5-a]pyrazin-2-ylamino}-1,3-dihydro-indol-2-one]: the IC50 was in the range of 3000 to 50000 nM.

Take `COCC1CCCN1c1nccn2nc(Nc3ccc4c(c3)NC(=O)C4(C)C)nc12` (centres unmarked) [E83, 6-[8-(2-methoxymethyl-pyrrolidin-1-yl)-[1,2,4]triazolo[1,5-a]pyrazin-2-ylamino]-3,3-dimethyl-1,3-dihydro-indol-2-one]: the 50% inhibitory concentration (IC50) lay within 300 to 3000 nM.

Molecule `CC1(C)C(=O)Nc2cc(Nc3nc4c(N5C[C@H](OC=O)C[C@@H]5c5ccccc5C(F)(F)F)nccn4n3)ccc21` [E85, formic acid (3R,5R)-1-[2-(3,3-dimethyl-2-oxo-2,3-dihydro-1H-indol-6-ylamino)-[1,2,4]triazolo[1,5-a]pyrazin-8-yl]-5-(2-trifluoromethyl-phenyl)-pyrrolidin-3-yl ester] returned an IC50 of 3000 to 50000 nM.

The molecule `CC1(C)CCNc2cc(Nc3nc4c(N5CC[C@]6(CNC(=O)C6)C5)nccn4n3)ccc21` [E86, (S)-7-[2-(4,4-dimethyl-1,2,3,4-tetrahydro-quinolin-7-ylamino)-[1,2,4]triazolo[1,5-a]pyrazin-8-yl]-2,7-diaza-spiro[4.4]nonan-3-one] had an IC50 of 100 to 300 nM.

With `CC1(C)C(=O)Nc2cc(Nc3nc4c(N5CCC6(CCNC6)C5)nccn4n3)ccc21` (centres unmarked) [E87, 6-[8-(2,7-diaza-spiro[4.4]non-2-yl)-[1,2,4]triazolo[1,5-a]pyrazin-2-ylamino]-3,3-dimethyl-1,3-dihydro-indol-2-one], the half-maximal inhibitory concentration (IC50) was less than 100 nM.

For `CN(C)c1nccn2nc(Nc3ccc4c(c3)NC(=O)C4(C)C)nc12` [E88, 6-(8-dimethylamino-[1,2,4]triazolo[1,5-a]pyrazin-2-ylamino)-3,3-dimethyl-1,3-dihydro-indol-2-one], the IC50 is less than 100 nM.

Consider `CN(C)CCN(C)c1nccn2nc(Nc3ccc4c(c3)NC(=O)C4(C)C)nc12` [E89, 6-{8-[(2-dimethylamino-ethyl)-methyl-amino]-[1,2,4]triazolo[1,5-a]pyrazin-2-ylamino}-3,3-dimethyl-1,3-dihydro-indol-2-one], for which the IC50 lay within 300 to 3000 nM.

As to `CN(CCc1ccccn1)c1nccn2nc(Nc3ccc4c(c3)NC(=O)C4(C)C)nc12` [E90, 3,3-dimethyl-6-{8-[methyl-(2-pyridin-2-yl-ethyl)-amino]-[1,2,4]triazolo[1,5-a]pyrazin-2-ylamino}-1,3-dihydro-indol-2-one], the IC50 lay within 300 to 3000 nM.

With `CC1(C)C(=O)Nc2cc(Nc3nc4c(NCC5CCNCC5)nccn4n3)ccc21` [E91, 3,3-dimethyl-6-{8-[(piperidin-4-ylmethyl)-amino]-[1,2,4]triazolo[1,5-a]pyrazin-2-ylamino}-1,3-dihydro-indol-2-one], the half-inhibitory concentration (IC50) is less than 100 nM.

Take `CCN(CC)c1nccn2nc(Nc3ccc4c(c3)NC(=O)C4(C)C)nc12` [E92, 6-(8-diethylamino-[1,2,4]triazolo[1,5-a]pyrazin-2-ylamino)-3,3-dimethyl-1,3-dihydro-indol-2-one]: the 50% inhibitory concentration (IC50) was less than 100 nM.

For `CC1(C)CC(=O)Nc2cc(Nc3nc4c(N5CCCC5c5ccccc5)nccn4n3)ccc21` (centres unmarked) [E93, 4,4-dimethyl-7-[8-(2-phenyl-pyrrolidin-1-yl)-[1,2,4]triazolo[1,5-a]pyrazin-2-ylamino]-3,4-dihydro-1H-quinolin-2-one], the IC50 was 300 to 3000 nM.

In turn, `CC1(C)CC(=O)Nc2cc(Nc3nc4c(N5CC(O)CC5c5ccccc5)nccn4n3)ccc21` (centres unmarked) [E96, 7-[8-(4-hydroxy-2-phenyl-pyrrolidin-1-yl)-[1,2,4]triazolo[1,5-a]pyrazin-2-ylamino]-4,4-dimethyl-3,4-dihydro-1H-quinolin-2-one] gave an IC50 of 300 to 3000 nM.

As to `CC1(C)CNc2cc(Nc3nc4c(N5CCCCCC5)nccn4n3)ccc21` [E99, (8-azepan-1-yl-[1,2,4]triazolo[1,5-a]pyrazin-2-yl)-(3,3-dimethyl-2,3-dihydro-1H-indol-6-yl)-amine], the concentration for half-maximal inhibition (IC50) is less than 100 nM.

`CC1(C)CN(c2nccn3nc(Nc4ccc5c(c4)NC(=O)C5(C)C)nc23)c2cc(Cl)ccc21` [E100, 6-[8-(6-chloro-3,3-dimethyl-2,3-dihydro-indol-1-yl)-[1,2,4]triazolo[1,5-a]pyrazin-2-ylamino]-3,3-dimethyl-1,3-dihydro-indol-2-one] came in with a 50% inhibitory concentration (IC50) of 300 to 3000 nM.

In the case of `CC1(C)CCNc2cc(Nc3nc4c(N5CC[C@@]6(CNC(=O)C6)C5)nccn4n3)ccc21` [E101, (R)-7-[2-(4,4-dimethyl-1,2,3,4-tetrahydro-quinolin-7-ylamino)-[1,2,4]triazolo[1,5-a]pyrazin-8-yl]-2,7-diaza-spiro[4.4]nonan-3-one], the half-inhibitory concentration (IC50) was less than 100 nM.

Take `CC1(C)C(=O)Nc2cc(Nc3nc4c(N5CCc6ccc(N)cc65)nccn4n3)ccc21` [E102, 6-[8-(6-amino-2,3-dihydro-indol-1-yl)-[1,2,4]triazolo[1,5-a]pyrazin-2-ylamino]-3,3-dimethyl-1,3-dihydro-indol-2-one]: the IC50 was less than 100 nM.

`CC(=O)NCCNc1nccn2nc(Nc3ccc4c(c3)NC(=O)C4(C)C)nc12` [E103, N-{2-[2-(3,3-dimethyl-2-oxo-2,3-dihydro-1H-indol-6-ylamino)-[1,2,4]triazolo[1,5-a]pyrazin-8-ylamino]-ethyl}-acetamide] showed an IC50 of 300 to 3000 nM.

For `CC1(C)C(=O)Nc2cc(Nc3nc4c(NS(C)(=O)=O)nccn4n3)ccc21` [E104, N-[2-(3,3-dimethyl-2-oxo-2,3-dihydro-1H-indol-6-ylamino)-[1,2,4]triazolo[1,5-a]pyrazin-8-yl]-methanesulfonamide], the half-maximal inhibitory concentration (IC50) is 3000 to 50000 nM.

As for `CC1(C)C(=O)Nc2cc(Nc3nc4c(N5CC[C@]6(CCNC6)C5)nccn4n3)ccc21` [E105, 6-[(S)-8-(2,7-diaza-spiro[4.4]non-2-yl)-[1,2,4]triazolo[1,5-a]pyrazin-2-ylamino]-3,3-dimethyl-1,3-dihydro-indol-2-one], the 50% inhibitory concentration (IC50) is less than 100 nM.

Regarding `CC1(C)C(=O)Nc2cc(Nc3nc4c(N5CC[C@@]6(CCNC6)C5)nccn4n3)ccc21` [E106, 6-[(R)-8-(2,7-diaza-spiro[4.4]non-2-yl)-[1,2,4]triazolo[1,5-a]pyrazin-2-ylamino]-3,3-dimethyl-1,3-dihydro-indol-2-one], the IC50 was less than 100 nM.

For the molecule `CC1(C)C(=O)Nc2cc(Nc3nc4c(N5CCCc6ccccc65)nccn4n3)ccc21` [E108, 6-[8-(3,4-dihydro-2H-quinolin-1-yl)-[1,2,4]triazolo[1,5-a]pyrazin-2-ylamino]-3,3-dimethyl-1,3-dihydro-indol-2-one], the IC50 was in the range of 300 to 3000 nM.

In the case of `CC1(C)C(=O)Nc2cc(Nc3nc4c(NCCN)nccn4n3)ccc21` [E110, 6-[8-(2-amino-ethylamino)-[1,2,4]triazolo[1,5-a]pyrazin-2-ylamino]-3,3-dimethyl-1,3-dihydro-indol-2-one], the IC50 fell in the range of 300 to 3000 nM.

`CC1(C)C(=O)Nc2cc(Nc3nc4c(NS(=O)(=O)c5ccccc5)nccn4n3)ccc21` [E111, N-[2-(3,3-dimethyl-2-oxo-2,3-dihydro-1H-indol-6-ylamino)-[1,2,4]triazolo[1,5-a]pyrazin-8-yl]-benzenesulfonamide] displayed an IC50 of 300 to 3000 nM.

`CC1(C)C(=O)Nc2cc(Nc3nc4c(N5CCC6(CNC(=O)O6)C5)nccn4n3)ccc21` (centres unmarked) [E112, 3,3-dimethyl-6-[8-(2-oxo-1-oxa-3,7-diaza-spiro[4.4]non-7-yl)-[1,2,4]triazolo[1,5-a]pyrazin-2-ylamino]-1,3-dihydro-indol-2-one] displayed an IC50 of less than 100 nM.

As for `CC1(C)C(=O)Nc2cc(Nc3nc4c(N5CCCC(C(N)=O)C5)nccn4n3)ccc21` (centres unmarked) [E113, 1-[2-(3,3-dimethyl-2-oxo-2,3-dihydro-1H-indol-6-ylamino)-[1,2,4]triazolo[1,5-a]pyrazin-8-yl]-piperidine-3-carboxylic acid amide], the half-maximal inhibitory concentration (IC50) is less than 100 nM.

Molecule `Cn1ncc2cc(-c3nccn4nc(Nc5ccc6c(c5)NC(=O)C6(C)C)nc34)ccc21` [E114] gave an IC50 of less than 100 nM.

As to `CC1(C)C(=O)Nc2cc(Nc3nc4c(-c5cnc6ccccc6c5)nccn4n3)ccc21` [E115, 3,3-Dimethyl-6-(8-quinolin-3-yl-[1,2,4]triazolo[1,5-a]pyrazin-2-ylamino)-1,3-dihydro-indol-2-one], the 50% inhibitory concentration (IC50) was less than 100 nM.

As to `CC1(C)C(=O)Nc2cc(Nc3nc4c(-c5cnc6c(c5)CCCO6)nccn4n3)ccc21` [E116, 6-[8-(3,4-Dihydro-2H-pyrano[2,3-b]pyridin-6-yl)-[1,2,4]triazolo[1,5-a]pyrazin-2-ylamino]-3,3-dimethyl-1,3-dihydro-indol-2-one], the IC50 is less than 100 nM.

`CC1(C)C(=O)Nc2cc(Nc3nc4c(NCCCNc5nccn6nc(Nc7ccc8c(c7)NC(=O)C8(C)C)nc56)nccn4n3)ccc21` [E117, 6-[[8-[3-[[2-[(3,3-dimethyl-2-oxo-indolin-6-yl)amino]-[1,2,4]triazolo[1,5-a]pyrazin-8-yl]amino]propylamino]-[1,2,4]triazolo[1,5-a]pyrazin-2-yl]amino]-3,3-dimethyl-indolin-2-one]: the half-maximal inhibitory concentration (IC50) was 3000 to 50000 nM.

`CC1(C)C(=O)Nc2cc(Nc3nc4c(NS(=O)(=O)c5ccc(N)cc5)nccn4n3)ccc21` [E118, 4-amino-N-[2-(3,3-dimethyl-2-oxo-2,3-dihydro-1H-indol-6-ylamino)-[1,2,4]triazolo[1,5-a]pyrazin-8-yl]benzenesulfonamide] had an IC50 of 3000 to 50000 nM.

On to `CN(C)c1ccc2c(c1)N(c1nccn3nc(Nc4ccc5c(c4)NC(=O)C5(C)C)nc13)CC2` [E119, 6-[8-(6-dimethylamino-2,3-dihydro-indol-1-yl)-[1,2,4]triazolo[1,5-a]pyrazin-2-ylamino]-3,3-dimethyl-1,3-dihydro-indol-2-one], for which the IC50 lay in the range of 100 to 300 nM.

The molecule `CC1(C)C(=O)Nc2cc(Nc3nc4c(N5CCC6(CNC(=O)CO6)C5)nccn4n3)ccc21` (centres unmarked) [E120, 2-[2-(3,3-dimethyl-2-oxo-2,3-dihydro-1H-indol-6-ylamino)-[1,2,4]triazolo[1,5-a]pyrazin-8-yl]-6-oxa-2,9-diaza-spiro[4.5]decan-8-one] gave a half-inhibitory concentration (IC50) of 300 to 3000 nM.

For the origin of these results see US9120804B2, “8-substituted 2-amino-[1,2,4] triazolo [1, 5-A] pyrazines as Syk tryrosine kinase inhibitors and GCN2 serin kinase inhibitors” (Merck Patent GmbH, priority 2012, dated 2015).
